Experimental data published in patent US10669272B2, “Substituted naphthyridinone compounds useful as T cell activators” (BRISTOL-MYERS SQUIBB COMPANY, priority 2018, dated 2020).
Like-named read-outs stand apart in the source and are kept apart here.

What was measured:
human DGKα = biological target: T1, human DGKα (Homo sapiens, UniProt P23743); test: DGKα LIPGLO assay (extruded liposome substrate), in vitro DGK inhibition; format: biochemical; details: read-out: DGKa LIPGLO IC50
T1 construct: TVMV protease cleavage site (C); Hexa-His (C); made in house; host or cells: Sf9 insect cells (baculovirus, Bac-to-Bac)
T1 sequence (P23743 with tags, fused parts or gaps): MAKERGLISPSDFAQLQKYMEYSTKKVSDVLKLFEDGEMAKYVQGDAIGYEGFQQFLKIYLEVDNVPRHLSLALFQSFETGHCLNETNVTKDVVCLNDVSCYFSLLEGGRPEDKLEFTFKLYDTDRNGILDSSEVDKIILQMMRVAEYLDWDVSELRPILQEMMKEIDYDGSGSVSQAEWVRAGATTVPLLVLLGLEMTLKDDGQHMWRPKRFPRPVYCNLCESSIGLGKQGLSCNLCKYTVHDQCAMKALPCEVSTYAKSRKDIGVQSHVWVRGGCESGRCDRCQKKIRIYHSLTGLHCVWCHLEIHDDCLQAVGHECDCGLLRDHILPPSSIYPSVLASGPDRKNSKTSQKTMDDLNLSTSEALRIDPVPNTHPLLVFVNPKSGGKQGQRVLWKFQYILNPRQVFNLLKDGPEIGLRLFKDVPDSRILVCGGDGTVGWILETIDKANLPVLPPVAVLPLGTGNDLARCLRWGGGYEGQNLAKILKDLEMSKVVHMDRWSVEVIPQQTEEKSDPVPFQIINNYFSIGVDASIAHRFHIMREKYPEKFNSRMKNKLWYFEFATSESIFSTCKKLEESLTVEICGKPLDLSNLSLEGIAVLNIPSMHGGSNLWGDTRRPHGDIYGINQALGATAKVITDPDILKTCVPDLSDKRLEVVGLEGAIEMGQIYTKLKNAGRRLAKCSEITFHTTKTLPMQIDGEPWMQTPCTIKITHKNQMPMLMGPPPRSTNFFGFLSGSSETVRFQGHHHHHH

[1] = test system: OT-1 CD8+ T cells with SIINFEKL-loaded MC38 tumor cells; test: Murine cytotoxic T lymphocyte assay (IFN-γ, OT-1 CTL with MC38 tumor cells); format: cell-based, mouse; details: read-out: msCTL INFg IC50
Source text: 5. Murine Cytotoxic T Lymphocyte Assay
An antigen-specific cytolytic T-cell (CTL) assay was developed to evaluate functionally the ability of DGKα and DGKζ inhibitors to enhance effector T cell mediated tumor cell killing activity. CD8+ T-cells isolated from the OT-1 transgenic mouse recognize antigen presenting cells, MC38, that present the ovalbumin derived peptide […]. Recognition of the cognate antigen initiates the cytolytic activity of the OT-1 antigen-specific CD8+ T cells.
Functional CTL cells were generated as follows: OT-1 splenocytes from 8-12 week old mice were isolated and expanded in the presence of the […] peptide at 1 μg/mL and mIL2 at 10 U/mL. After three days, fresh media with […] was added. On day 5 of the expansion, the CD8+ T cells were isolated and ready for use. Activated CTL cells may be stored frozen for 6 months. Separately, one million MC38 tumor cells were pulsed with 1 μg/mL of […]-OVA peptide for 3 hours at 37° C. The cells were washed (3×) with fresh media to remove excess peptide. Finally, CTL cells that were pretreated with DGK inhibitors for 1 hour in a 96-well U bottom plate were combined with the antigen loaded MC38 tumor cells at a 1:10 ratio. The cells were then spun at 700 rpm for 5 min and placed in an incubator overnight at 37° C. After 24 hours, the supernatant was collected for analysis of IFN-γ cytokine levels by AlphaLisa purchased from Perkin Elmer.

human DGKζ = biological target: T2, human DGKζ (Homo sapiens, UniProt Q13574); test: DGKζ LIPGLO assay (extruded liposome substrate), in vitro DGK inhibition; format: biochemical; details: read-out: DGKz LIPGLO IC50
T2 construct: TVMV protease cleavage site (C); Hexa-His (C); made in house; host or cells: Sf9 insect cells (baculovirus, Bac-to-Bac)
T2 sequence (Q13574 with tags, fused parts or gaps isoform Q13574-4): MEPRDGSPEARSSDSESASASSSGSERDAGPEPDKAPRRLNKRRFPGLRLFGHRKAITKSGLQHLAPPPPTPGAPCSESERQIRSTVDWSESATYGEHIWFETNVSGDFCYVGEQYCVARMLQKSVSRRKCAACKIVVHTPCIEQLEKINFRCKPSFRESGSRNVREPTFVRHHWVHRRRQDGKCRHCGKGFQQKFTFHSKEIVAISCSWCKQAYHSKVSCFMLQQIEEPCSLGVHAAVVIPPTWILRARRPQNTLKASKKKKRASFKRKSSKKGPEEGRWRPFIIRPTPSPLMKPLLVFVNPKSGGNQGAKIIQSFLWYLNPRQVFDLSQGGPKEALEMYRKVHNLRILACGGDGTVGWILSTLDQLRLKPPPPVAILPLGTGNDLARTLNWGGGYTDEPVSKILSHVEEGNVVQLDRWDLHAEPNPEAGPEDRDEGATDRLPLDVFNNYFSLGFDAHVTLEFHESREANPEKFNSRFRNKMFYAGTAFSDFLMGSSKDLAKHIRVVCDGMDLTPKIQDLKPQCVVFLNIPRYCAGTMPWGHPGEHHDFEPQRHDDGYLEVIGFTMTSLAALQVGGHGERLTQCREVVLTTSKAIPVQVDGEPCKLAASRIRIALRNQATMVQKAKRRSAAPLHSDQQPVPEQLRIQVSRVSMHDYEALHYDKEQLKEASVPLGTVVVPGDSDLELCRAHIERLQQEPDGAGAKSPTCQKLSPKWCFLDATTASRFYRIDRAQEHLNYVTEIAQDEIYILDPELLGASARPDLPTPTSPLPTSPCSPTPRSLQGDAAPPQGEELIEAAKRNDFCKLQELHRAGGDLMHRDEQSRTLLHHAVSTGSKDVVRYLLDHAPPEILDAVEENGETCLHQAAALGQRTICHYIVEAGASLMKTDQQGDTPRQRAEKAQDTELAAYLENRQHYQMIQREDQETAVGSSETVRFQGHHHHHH

naïve human CD8 T cells = test: Human CD8 T cells IFN-γ assay; format: cell-based; details: normalized to 3 μM reference compound with anti-CD3 plus anti-CD28 as 100% activation, read-out: HuCD8 INFG Normalized EC50;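 also: Naïve human CD8 T cells stimulated with plate-bound anti-CD3 and soluble anti-CD28, IFN-γ in supernatant quantified by AlphaLISA and converted to pg/mL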
Human venous whole blood = test: Human whole blood IFN-γ assay; format: cell-based; details: human whole blood, read-out: INFg Whole Blood Normalized Agonist EC50;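 also: blood from healthy donors exposed to compound for 1 h before stimulation with anti-CD3 and anti-CD28 at 1 µg/mL each, IFN-γ quantified in supernatant by AlphaLISA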
Protocol: Human Whole Blood IFN-γ Assay
Human venous whole blood (22.5 μL per well), obtained from healthy donors, was pre-treated with compounds for one hour at 37° C. in a humidified 95% air/5% CO2 incubator. The blood was stimulated with 2.5 μL anti-human CD3 and anti-CD28 mAb at a final concentration of 1 μg/mL each for 24 hours at 37° C. IFN-γ in the supernatants was measured using AlphLISA kit (Cat # AL217).

[2] = Homo sapiens, 24 h, normalized to 3 μM reference compound with anti-CD3 plus anti-CD28 as 100% activation
[3] = normalized to 3 μM reference compound with anti-CD3 plus anti-CD28 as 100% activation

Compound | IC50 (human DGKα; liposome (LIPGLO) assay) [µM] | IC50 ([1]; Mus musculus, MC-38) [µM] | IC50 (human DGKζ; liposome (LIPGLO) assay) [µM] | EC50 (naïve human CD8 T cells) [µM] | IC50 [1] [µM] | further results
C[C@H]1CN(C(c2ccc(F)cc2)c2ccc(F)cc2)CCN1c1cc(=O)n(C)c2ccc(C#N)nc12 [Example 134, (S)-8-(4-(bis(4-fluorophenyl)methyl)-2-methylpiperazin-1-yl)-5-methyl-6-oxo-5,6-dihydro-1,5-naphthyridine-2-carbonitrile] | 13 | 0.39 | 4.9 |  |  | EC50 (naïve human CD8 T cells; Homo sapiens, T-cell, 20 h): 0.59 µM
Cn1c(=O)c(C#N)c(N2CCN(C(c3ccc(F)cc3)c3ccc(F)cc3)C(C(=O)O)C2)c2nc(C#N)ccc21 (single isomer, unassigned) [Example 54, 1-(bis(4-fluorophenyl)methyl)-4-(3,6-dicyano-1-methyl-2-oxo-1,2-dihydro-1,5-naphthyridin-4-yl)piperazine-2-carboxylic acid] | 200 | 10 | 120 | 10 |  | 
Cn1c(=O)c(C#N)c(N2CCN(C(c3ccc(F)cc3)c3ccc(F)cc3)C(CO)C2)c2nc(C#N)ccc21 (single isomer, unassigned) [Example 16, 8-(4-(bis(4-fluorophenyl)methyl)-3-(hydroxymethyl)piperazin-1-yl)-5-methyl-6-oxo-5,6-dihydro-1,5-naphthyridine-2,7-dicarbonitrile] | 7.5 |  | 12 | 0.53 | 1.4 | 
Cn1c(=O)cc(N2CCN(C(c3ccc(F)cc3)c3ccc(F)cc3)CC2C(=O)NC2CC2)c2nc(C#N)ccc21 (single isomer, unassigned) [Example 139, 4-(bis(4-fluorophenyl)methyl)-1-(6-cyano-1-methyl-2-oxo-1,2-dihydro-1,5-naphthyridin-4-yl)-N-cyclopropylpiperazine-2-carboxamide] | 240 | 10 | 110 | 50 |  | 
Cn1c(=O)c(C#N)c(N2CCN(C(c3ccc(F)cc3)c3ccc(F)cc3)C(C(=O)NC3CC3)C2)c2nc(C#N)ccc21 (single isomer, unassigned) [Example 60, 1-(bis(4-fluorophenyl)methyl)-N-cyclopropyl-4-(3,6-dicyano-1-methyl-2-oxo-1,2-dihydro-1,5-naphthyridin-4-yl)piperazine-2-carboxamide] | 240 | 10 | 72 |  |  | EC50 (naïve human CD8 T cells; Homo sapiens, T-cell, 20 h): 10 µM
CC(C)OC(=O)C1CN(c2cc(=O)n(C)c3ccc(C#N)nc23)CCN1C(c1ccc(F)cc1)c1ccc(F)cc1 (single isomer, unassigned) [Example 63, Isopropyl 1-(bis(4-fluorophenyl)methyl)-4-(6-cyano-1-methyl-2-oxo-1,2-dihydro-1,5-naphthyridin-4-yl)piperazine-2-carboxylate] | 240 |  | 240 | 0.21 | 1.6 | 
CC1CN(c2cc(=O)n(C)c3ccc(C#N)nc23)CC(C)N1C(c1ccc(F)cc1)c1ccc(F)cc1 (stereo not drawn) [Example 163, 8-(4-(bis(4-fluorophenyl)methyl)-3,5-dimethylpiperazin-1-yl)-5-methyl-6-oxo-5,6-dihydro-1,5-naphthyridine-2-carbonitrile] | 16 | 2.1 | 12 |  |  | EC50 (naïve human CD8 T cells; Homo sapiens, T-cell, 20 h): 1.5 µM
CC(C)OC(=O)C1CN(c2c(C#N)c(=O)n(C)c3ccc(C#N)nc23)CCN1C(c1ccc(F)cc1)c1ccc(F)cc1 (single isomer, unassigned) [Example 64, Isopropyl 1-(bis(4-fluorophenyl)methyl)-4-(3,6-dicyano-1-methyl-2-oxo-1,2-dihydro-1,5-naphthyridin-4-yl)piperazine-2-carboxylate] | 240 | 8.8 | 240 | 10 |  | 
C[C@@H]1CN(c2c(Cl)c(=O)n(C)c3ccc(C#N)nc23)CCN1C(c1ccc(Cl)cc1)c1ccc(Cl)cc1 [Example 105, (R)-8-(4-(bis(4-chlorophenyl)methyl)-3-methylpiperazin-1-yl)-7-chloro-5-methyl-6-oxo-5,6-dihydro-1,5-naphthyridine-2-carbonitrile, dimethylformamide] | 1.4 | 0.074 | 0.82 |  |  | EC50 (Human venous whole blood; [2]): 4.3 µM
Cn1c(=O)cc(N2CCN(C(c3ccc(F)cc3)c3ccc(F)cc3)CC2C#N)c2nc(C#N)ccc21 (single isomer, unassigned) [Example 143, 8-(4-(bis(4-fluorophenyl)methyl)-2-cyanopiperazin-1-yl)-5-methyl-6-oxo-5,6-dihydro-1,5-naphthyridine-2-carbonitrile] | 5.4 | 0.33 | 6.4 |  |  | EC50 (Human venous whole blood; [2]): 5.7 µM
Cn1c(=O)c(C#N)c(N2CCN(C(c3ccc(F)cc3)c3ccc(F)cc3)C(CO)C2)c2nc(C#N)ccc21 (single isomer, unassigned) [Example 15, 8-(4-(bis(4-fluorophenyl)methyl)-3-(hydroxymethyl)piperazin-1-yl)-5-methyl-6-oxo-5,6-dihydro-1,5-naphthyridine-2,7-dicarbonitrile] | 5.1 | 0.91 | 6.6 | 10 |  | 
CC1C(C)N(C(c2ccc(F)cc2)c2ccc(F)cc2)CCN1c1cc(=O)n(C)c2ccc(C#N)nc12 (single isomer, unassigned) [Example 124, 8-(4-(bis(4-fluorophenyl)methyl)-2,3-dimethylpiperazin-1-yl)-5-methyl-6-oxo-5,6-dihydro-1,5-naphthyridine-2-carbonitrile] | 9.9 |  | 15 |  | 0.39 | EC50 (Human venous whole blood; [3]): 4.8 µM
COC(=O)C1CN(C(c2ccc(F)cc2)c2ccc(F)cc2)CCN1c1cc(=O)n(C)c2ccc(C#N)nc12 (single isomer, unassigned) [Example 136, Methyl 4-(bis(4-fluorophenyl)methyl)-1-(6-cyano-1-methyl-2-oxo-1,2-dihydro-1,5-naphthyridin-4-yl)piperazine-2-carboxylate] | 25 |  | 39 |  | 0.52 | EC50 (naïve human CD8 T cells; Homo sapiens, T-cell, 20 h): 0.95 µM
Cc1ccc(C(c2ccc(F)cc2)N2C[C@H](C)N(c3cc(=O)n(C)c4ccc(C#N)nc34)C[C@H]2C)cc1 (single isomer, unassigned) [Example 251] | 0.67 | 0.032 | 0.32 |  |  | EC50 (Human venous whole blood; [2]): 0.44 µM
Cn1c(=O)cc(N2CCN(C(c3ccc(F)cc3)c3ccc(F)cc3)CC2c2ccccc2)c2nc(C#N)ccc21 (single isomer, unassigned) [Example 156, 8-(4-(bis(4-fluorophenyl)methyl)-2-phenylpiperazin-1-yl)-5-methyl-6-oxo-5,6-dihydro-1,5-naphthyridine-2-carbonitrile] | 8.5 |  | 9.8 |  | 0.4 | EC50 (Human venous whole blood; [3]): 6.9 µM
CC(C)C(=O)C1CN(c2cc(=O)n(C)c3ccc(C#N)nc23)CCN1C(c1ccc(F)cc1)c1ccc(F)cc1 (single isomer, unassigned) [Example 86, 8-(4-(bis(4-fluorophenyl)methyl)-3-isobutyrylpiperazin-1-yl)-5-methyl-6-oxo-5,6-dihydro-1,5-naphthyridine-2-carbonitrile] | 7.4 |  | 1.2 |  | 0.2 | EC50 (Human venous whole blood; [2]): 2.9 µM
COC(=O)[C@@H]1CN(c2cc(=O)n(C)c3ccc(C#N)nc23)CCN1C(c1ccc(F)cc1)c1ccc(F)cc1 [Example 66, Methyl (S)-1-(bis(4-fluorophenyl)methyl)-4-(6-cyano-1-methyl-2-oxo-1,2-dihydro-1,5-naphthyridin-4-yl)piperazine-2-carboxylate] | 2.4 | 0.066 | 1.2 |  |  | EC50 (naïve human CD8 T cells; Homo sapiens, T-cell, 20 h): 0.16 µM
C[C@@H]1CN(c2c(C#N)c(=O)n(C)c3ccc(C#N)nc23)CCN1Cc1ccc(F)cc1F [Example 985] |  |  |  |  |  | IC50 (human DGKα; DGKα liposome (LIPGLO) assay): 2.2 µM; IC50 ([1]; Mus musculus, MC-38, murine CTL, IFN-γ): 4.1 µM; EC50 (Human venous whole blood; Homo sapiens, 24 h, anti-CD3 plus anti-CD28, 24 hours, 3 μM reference compound = 100% activation): 9.7 µM; IC50 (human DGKζ; DGKζ liposome (LIPGLO) assay): 3 µM
